Data as given in ChEMBL document CHEMBL3102724, “Isolation of antiplasmodial anthraquinones from Kniphofia ensifolia, and synthesis and structure-activity relationships of related compounds” (Bioorg Med Chem, 2014).

Assays:
[1] = test system: Plasmodium falciparum; test: Antiplasmodial activity against chloroquine-resistant ring stage Plasmodium falciparum Dd2 after 72 hrs by SYBR Green 1-based fluorescence assay; type: functional, organism-based; settings: Dd2, 72 h
[2] = test system: A2780; test: Cytotoxicity against human A2780 cells; type: cell-based

| SMILES | IC50 [1] | IC50 [2] |
| --- | --- | --- |
| O=C(/C=C/c1ccccc1)OCc1cc(O)c2c(c1)C(=O)c1cccc(O)c1C2=O | 18 µM |  |
| Cc1cc(O)c2c(c1)C(=O)c1cccc(O)c1C2=O [CHRYSOPHANOL] | 58 µM | > 60 µM |
| O=C(OCc1cc(O)c2c(c1)C(=O)c1cccc(O)c1C2=O)c1ccc(O)cc1 | 26 µM | > 60 µM |
| O=C(OCc1cc(O)c2c(c1)C(=O)c1cccc(O)c1C2=O)c1ccccc1 | 31 µM |  |
| O=C1c2cccc(O)c2C(=O)c2c(O)cc(CO)cc21 [ALOE-EMODIN] | 55 µM | 26 µM |
| C/C=C/C(=O)OCc1cc(O)c2c(c1)C(=O)c1cccc(O)c1C2=O | 45 µM |  |
| Cc1cc(O)c2c(c1)C(=O)c1ccc(C3(O)c4cccc(O)c4C(=O)c4c(O)cc(C)cc43)c(O)c1C2=O (configuration not stated) | 0.4 µM | 6 µM |
| COc1ccc(C(=O)OCc2cc(O)c3c(c2)C(=O)c2cccc(O)c2C3=O)cc1 | 22 µM |  |
| COc1ccc(/C=C/C(=O)OCc2cc(O)c3c(c2)C(=O)c2cccc(O)c2C3=O)c(OC)c1 | 6 µM |  |
| O=C(/C=C/c1ccc(O)cc1)OCc1cc(O)c2c(c1)C(=O)c1cccc(O)c1C2=O | 9 µM | > 60 µM |
| COc1cc(/C=C/C(=O)OCc2cc(O)c3c(c2)C(=O)c2cccc(O)c2C3=O)cc(OC)c1OC | 2.7 µM |  |
| C[C@@H]1CC[C@H]2[C@@H](C)C(=O)O[C@@H]3O[C@@]4(C)CC[C@@H]1[C@]32OO4 [ARTEMISININ] | 0.007 µM |  |
| COc1cc(/C=C/C(=O)OCc2cc(O)c3c(c2)C(=O)c2cccc(O)c2C3=O)cc(OC)c1 | 2.5 µM |  |
| COc1cccc(/C=C/C(=O)OCc2cc(O)c3c(c2)C(=O)c2cccc(O)c2C3=O)c1OC | 8 µM |  |
| O=C(/C=C/c1ccc2c(c1)OCO2)OCc1cc(O)c2c(c1)C(=O)c1cccc(O)c1C2=O | 1.9 µM |  |
| Cc1cc(O)cc2c1C(=O)c1cc(-c3c(C)cc4c(c3O)C(=O)c3c(O)cccc3C4=O)cc(O)c1C2=O | 10 µM | > 60 µM |
| COc1ccc(OC)c(/C=C/C(=O)OCc2cc(O)c3c(c2)C(=O)c2cccc(O)c2C3=O)c1 | 9 µM |  |
| Cc1cc(O)c2c(c1)C(O)(c1ccc3c(c1O)C(=O)c1c(O)cc(C)c(O)c1C3=O)c1cccc(O)c1C2=O (configuration not stated) | 0.2 µM | 4 µM |
| CC(=O)Oc1ccc(/C=C/C(=O)OCc2cc(O)c3c(c2)C(=O)c2cccc(O)c2C3=O)cc1 | 12 µM |  |
| COc1ccc(/C=C/C(=O)OCc2cc(O)c3c(c2)C(=O)c2cccc(O)c2C3=O)cc1 | 5 µM |  |
| COc1cc(O)c(-c2c(C)cc(O)c3c2C(=O)c2cccc(O)c2C3=O)c(O)c1C(C)=O [KNIPHOLONE] | 1.1 µM | 8 µM |
| CC(=O)OCc1cc(O)c2c(c1)C(=O)c1cccc(O)c1C2=O | 42 µM |  |
| Cc1cc(O)c2c(c1)C(=O)c1ccc(-c3c(C)cc(O)c4c3C(=O)c3cccc(O)c3C4=O)c(O)c1C2=O | 10 µM | > 60 µM |
| O=C(CCc1ccccc1)OCc1cc(O)c2c(c1)C(=O)c1cccc(O)c1C2=O | 36 µM |  |
| CC(=O)Oc1ccc(C(=O)OCc2cc(O)c3c(c2)C(=O)c2cccc(O)c2C3=O)cc1 | 30 µM |  |
| COc1ccc(/C=C/C(=O)OCc2cc(O)c3c(c2)C(=O)c2cccc(O)c2C3=O)cc1OC | 1.3 µM |  |
| COc1cc(C(=O)OCc2cc(O)c3c(c2)C(=O)c2cccc(O)c2C3=O)cc(OC)c1OC | 16 µM |  |
| COc1ccc(C(=O)OCc2cc(O)c3c(c2)C(=O)c2cccc(O)c2C3=O)cc1OC | 14 µM |  |
